Experimental data from patent CN108159055A, “治疗乳腺癌的长效递药系统、其制备方法及应用” (XI'AN LIBANG MEDICINE SCIENCE AND TECHNOLOGY Co Ltd, priority 2018, dated 2018).

Test: Miscibility of solvents with oils (Test Example 2 part 1, Table 2)
Assay type: physicochemical
Settings: no phospholipid

CC(=O)OCC(COC(C)=O)OC(C)=O.CC(=O)OCC(COC(C)=O)OC(C)=O [三乙酸甘油酯]
miscibility (with benzyl alcohol): 混溶
miscibility (with benzyl benzoate): 混溶
miscibility (with ethanol): 不混溶
miscibility (with ethyl lactate): 不混溶
